The results in this text go back to US10239957B2, “Peptide containing conjugates for dual molecular delivery of oligonucleotides” (Merck Sharp & Dohme Corp., priority 2013, dated 2019).

Data set [1] has as its system CTNNB1. Kind of data set: In vitro DMD assay: mRNA silencing enhancement by peptide conjugates after siRNA-IV treatment. The class given is cell-based. To be noted: primary mouse hepatocytes, siRNA-IV 125 nM baseline. In short, it runs like this: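 Primary mouse hepatocytes were pretreated 1 h with siRNA-IV at 125 nM, then exposed ~16 h to peptide conjugates across a dose range, washed and held 24 h more. Target mRNA by RT-qPCR, normalized to PPIB (dddCt), expressed as enhancement over siRNA-IV alone relative to untreated cells.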

Data set [2] has as its system CTNNB1. Kind of data set: In vivo evaluation in mice: liver mRNA knockdown measurement. As to conditions: mice. On the procedure: Female CD-1 mice (Charles River) were injected in accordance with either a sequential dosing paradigm or a co-dosing paradigm. In the sequential dosing paradigm, the targeted siRNA (SCE) is dosed at t=0 and the targeted peptide is separately dosed up to 2 hr before the SCE (−2 hr) or up to 24 hr after the SCE (+24 hr). In the co-dosing paradigm, the SCE and peptides are co-formulated and dosed together in the same formulation as a single injection at t=0. The mice were dosed either by intravenous (i.v.) or subcutaneous (s.c.) injection of SCE and peptide. For the i.v. doses, the compounds were injected into the tail vein of the mice. For the s.c. doses, the compounds were injected in the subcutaneous space on the back of the mouse between the shoulder blades. At the indicated harvest times (measured from t=0 when the siRNA was dosed, regardless of when the peptide was dosed), the animals were sacrificed and 3 mm liver punches were collected, preserved in RNAlater (Ambion), and stored at 4° C. Separate 5 mm liver punches were collected, placed in 96-well plates, frozen on dry ice, and stored at −80° C. until use.
The 3 mm liver punches were removed from RNAlater and homogenized in Trizol (Invitrogen) using a bead mill tissue lyser (Qiagen); disruption was performed for two 5-minute cycles at 30 Hz. RNA extraction was performed using 1-bromo-2-chloropropane (Acros Organics) and total RNA was isolated from the aqueous phase using the MagMax RNA isolation method (Ambion). […] TaqMan qPCR analysis was performed with an ABI 7900 Real-Time PCR System using TaqMan Fast Advanced Master Mix (Applied Biosystems). All TaqMan probes and primers for CTNNB1 and PPIB (housekeeping gene) were purchased from Applied Biosystems as pre-validated gene expression assays. Results are calculated by the comparative Ct method, where the difference between the CTNNB1 Ct value and the PPIB Ct value (ΔCt) is calculated and then further normalized relative to the PBS control by taking a second difference (ΔΔCt), as described previously (1).

[3] abbreviates: TGN-L-siRNA-III 0.25 mg/kg IV, peptide 10 mg/kg IV 15 min after siRNA.
Setting [4] is: TGN-L-siRNA-II 0.25 mg/kg IV, peptide 3 mg/kg IV 15 min after siRNA.

Where no end group is shown, it is not given here. [ ]: non-standard residue; d: D form. TGN = not defined here

As for “TGN-S-S-SEQ ID NO: 1631 (D) ([dC]G[dL][dF]G[dH][dI][dH][dH][dL][dI][dH][dH]G[dL][dH][dN][dL][dI][dD][dW][dW][dN]G; not fully specified (residue 1); also: TGN attached via disulfide; listed as Homo sapiens)”, in the data set on CTNNB1 [1] (Targeted peptide dose 15625 nM), the “In vitro dddCt (vs. baseline SCE dose)” value is given as −2.11. In the data set on CTNNB1 [2] (setting [3]), the “In vivo mRNA knockdown” value is 17%.

As for “TGN-S-S-SEQ ID NO: 1632 (D) ([dC]G[dL][dF]G[dE][dI][dH][dH][dL][dI][dH][dH]G[dL][dH][dN][dL][dI][dD][dW][dW][dN]G; not fully specified (residue 1); also: TGN attached via disulfide; listed as Homo sapiens)”, the “In vitro dddCt (vs. baseline SCE dose)” value in the data set with CTNNB1 [1] (Targeted peptide dose 125 nM) is given as −0.29; with CTNNB1 [1] (Targeted peptide dose 625 nM) it was −0.44; in the data set on CTNNB1 [1] (Targeted peptide dose 3125 nM), −0.19; in the data set with CTNNB1 [1] (Targeted peptide dose 15625 nM) it was −0.47. In addition, the “In vivo mRNA knockdown” value in the data set on CTNNB1 [2] (setting [3]) amounted to 36%.

As to “TGN-S-S-SEQ ID NO: 1633 (D) ([dC]G[dL][dF]G[dE][dI][dH][dH][dL][dI][dH][dH]G[dL][dE][dN][dL][dI][dD][dW][dW][dN]G; not fully specified (residue 1); also: TGN attached via disulfide; listed as Homo sapiens)”, the “In vitro dddCt (vs. baseline SCE dose)” value was −0.33 with CTNNB1 [1] (Targeted peptide dose 25 nM), −0.2 in the data set on CTNNB1 [1] (Targeted peptide dose 625 nM) and −0.2 with CTNNB1 [1] (Targeted peptide dose 3125 nM). Also, the “In vivo mRNA knockdown” value with CTNNB1 [2] (setting [3]) was 55%.

For “TGN-S-S-SEQ ID NO: 1634 (D) ([dC]G[dL][dF]G[dE][dI][dH][dE][dL][dI][dH][dH]G[dL][dE][dN][dL][dI][dD][dW][dW][dN]G; not fully specified (residue 1); also: TGN attached via disulfide; listed as Homo sapiens)”, the “In vitro dddCt (vs. baseline SCE dose)” value in the data set on CTNNB1 [1] (Targeted peptide dose 125 nM) is reported as −0.3; in the data set on CTNNB1 [1] (Targeted peptide dose 625 nM), −0.41; in the data set on CTNNB1 [1] (Targeted peptide dose 3125 nM) it was −0.3; in the data set with CTNNB1 [1] (Targeted peptide dose 15625 nM), −0.74. In the data set with CTNNB1 [2] (setting [3]), the “In vivo mRNA knockdown” value was found to be 17%.

Turning to “TGN-S-S-SEQ ID NO: 1651 (D) ([dC]G[dL][dF][dE][dE][dI][dA][dE][dL][dI][dE][dE]G[dL][dE][dN][dL][dI][dD][dW]G[dN]G; not fully specified (residue 1); also: TGN attached via disulfide; listed as Homo sapiens)”, the “In vitro dddCt (vs. baseline SCE dose)” value is on record as −0.84 in the data set with CTNNB1 [1] (Targeted peptide dose 125 nM), −1.11 with CTNNB1 [1] (Targeted peptide dose 625 nM), −1.55 in the data set with CTNNB1 [1] (Targeted peptide dose 3125 nM) and −1.48 in the data set on CTNNB1 [1] (Targeted peptide dose 15625 nM). The “In vivo mRNA knockdown” value with CTNNB1 [2] (setting [3]) worked out at 49%.

On to “TGN-S-S-SEQ ID NO: 1652 (D) ([dC][dE][dL][dF][dE][dE][dL][dA][dE][dL][dL][dW][dE]G[dL][dE][dN][dL][dI][dD][dW]G[dN][dS]; not fully specified (residue 1); also: TGN attached via disulfide; listed as Homo sapiens)”, for which the “In vitro dddCt (vs. baseline SCE dose)” value was −1.27 in the data set with CTNNB1 [1] (Targeted peptide dose 125 nM), −1.5 with CTNNB1 [1] (Targeted peptide dose 625 nM), −1.6 in the data set on CTNNB1 [1] (Targeted peptide dose 3125 nM) and −2.03 in the data set with CTNNB1 [1] (Targeted peptide dose 15625 nM). Also, in the data set with CTNNB1 [2] (setting [3]), the “In vivo mRNA knockdown” value is given as 37%.

With “TGN-S-S-SEQ ID NO: 1726(D): TGN-S-S-peptide; peptide CGLFAVIKKVASVIGGL ([dC]G[dL][dF][dA][dV][dI][dK][dK][dV][dA][dS][dV][dI]GG[dL]; not fully specified (residue 1); also: TGN attached via disulfide; listed as Homo sapiens)”, in the data set with CTNNB1 [2] (setting [3]), the “In vivo mRNA knockdown” value is listed as 23%.

For “TGN-S-S-SEQ ID NO: 1727 (D): TGN-S-S-peptide; peptide CGLFAVIHHVASVIGGL ([dC]G[dL][dF][dA][dV][dI][dH][dH][dV][dA][dS][dV][dI]GG[dL]; not fully specified (residue 1); also: TGN attached via disulfide; listed as Homo sapiens)”, in the data set on CTNNB1 [2] (setting [3]), the “In vivo mRNA knockdown” value is 26%.

Turning to “TGN-S-S-SEQ ID NO: 1728(D): TGN-S-S-peptide; peptide CGLFAVIEEVASVIGGL ([dC]G[dL][dF][dA][dV][dI][dE][dE][dV][dA][dS][dV][dI]GG[dL]; not fully specified (residue 1); also: disulfide to TGN peptide via Cys1; listed as Homo sapiens)”, in the data set with CTNNB1 [2] (setting [3]), the “In vivo mRNA knockdown” value is 23%.

Regarding “TGN-S-S-SEQ ID NO: 1729 (L) (C(TGN)GPSQPTYPGDDAPVRDLIRFYRDLRRYLNVVTRHRY; reading uncertain; also: TGN linked to Cys via disulfide, TGN not defined; listed as Homo sapiens)”, the “In vivo mRNA knockdown” value in the data set on CTNNB1 [2] (setting [3]) was 10%.

With “TGN-S-S-SEQ ID NO: 1740 (D): TGN-S-S-peptide; peptide GLFEAIEGFIENGWEGLAELAEALEALAAGGSC (G[dL][dF][dE][dA][dI][dE]G[dF][dI][dE][dN]G[dW][dE]G[dL][dA][dE][dL][dA][dE][dA][dL][dE][dA][dL][dA][dA]GG[dS][dC]; not fully specified (residue 33); also: disulfide to TGN peptide via Cys33; listed as Homo sapiens)”, the “In vivo mRNA knockdown” value with CTNNB1 [2] (TGN-L-siRNA-II 0.25 mg/kg IV, peptide 1 mg/kg IV 15 min after siRNA) is 23%; in the data set on CTNNB1 [2] (setting [4]), 42%.

On to “TGN-S-S-SEQ ID NO: 1741(L): TGN-S-S-peptide; peptide GLFGALAEALAEALAEHLAEALAEALEALAAGGSC (GLFGALAEALAEALAEHLAEALAEALEALAAGGSC(TGN); reading uncertain; also: TGN linked to Cys via disulfide, TGN not defined; listed as Homo sapiens)”, for which the “In vivo mRNA knockdown” value with CTNNB1 [2] (setting [4]) worked out at 24%.

With “TGN-S-S-SEQ ID NO: 1744 (D) ([dC][dE][dE][dN][dW][dI]G[dL][dF]GGG[dN][dI][dW][dE][dE][dE][dE][dI][dL][dD][dL][dL]; not fully specified (residue 1); also: disulfide to TGN peptide via Cys1; listed as Homo sapiens)”, the “In vivo mRNA knockdown” value in the data set with CTNNB1 [2] (TGN-L-siRNA-III 0.5 mg/kg IV, peptide 2 mg/kg IV 15 min after siRNA) came out at 28%; in the data set on CTNNB1 [2] (TGN-L-siRNA-III 0.5 mg/kg IV, peptide 10 mg/kg IV 15 min after siRNA), 33%.

In the case of “siRNA-IV: CTNNB1 siRNA; passenger SEQ ID NO 1807 (clickA, 5Chol), guide SEQ ID NO 1806 (sense CUGUUGGAUUGAUUCGAAAUU; guide TUUCGAAUCAAUCCAACAGUU; click A, 5' cholesterol; vinylphosphonate MOE T; (1)..(1) aminohexyl phosphate inverted abasic cap; (1)..(2) 2′-O-methyl; (3)..(3) 2′-deoxy-2′-fluoro; (4)..(5) 2′-O-methyl; (6)..(8) 2′-deoxy-2′-fluoro; (9)..(10) 2′-O-methyl; (11)..(12) 2′-deoxy-2′-fluoro; (13)..(15) 2′-O-methyl; (16)..(16) 2′-deoxy-2′-fluoro; (17)..(17) 2′ propagyl; (18)..(19) 2′-deoxy-2′-fluoro; (20)..(21) 2′-O-methyl; (20)..(21) phosphorothioate internucleotide linkage; (21)..; (1)..(1) terminal vinyl phosphate; (1)..(1) 2′-methoxyethoxy; (2)..(21) ribonucleotide unmodified or modified as described for this sequence; …)”, the “In vivo mRNA knockdown” value in the data set on CTNNB1 [2] (targeted siRNA alone 0.5 mg/kg IV, peptide dose 0) was 25%; in the data set with CTNNB1 [2] (targeted siRNA alone 2 mg/kg IV, peptide dose 0) it was 25%; with CTNNB1 [2] (targeted siRNA alone 5 mg/kg IV, peptide dose 0) it was 35%.
